Data: ChEMBL document CHEMBL1153114, “Discovery of orally available integrin alpha5beta1 antagonists” (Bioorg Med Chem Lett, 2010)
pIC50: −log10 of the molar value.

How the values were obtained:
Integrin alpha-5/beta-1 = Integrin alpha-5/beta-1 (Homo sapiens, UniProt P05556+P08648); assay: Binding affinity to integrin alpha5beta1 receptor by ELISA; format: protein-complex assay
Integrin alpha-V/beta-3 = Integrin alpha-V/beta-3 (Homo sapiens, UniProt P05106+P06756); assay: Binding affinity to integrin […] receptor by ELISA; format: protein-complex assay
Sequence of Integrin alpha-V/beta-3 (P05106 27-788 limits assumed): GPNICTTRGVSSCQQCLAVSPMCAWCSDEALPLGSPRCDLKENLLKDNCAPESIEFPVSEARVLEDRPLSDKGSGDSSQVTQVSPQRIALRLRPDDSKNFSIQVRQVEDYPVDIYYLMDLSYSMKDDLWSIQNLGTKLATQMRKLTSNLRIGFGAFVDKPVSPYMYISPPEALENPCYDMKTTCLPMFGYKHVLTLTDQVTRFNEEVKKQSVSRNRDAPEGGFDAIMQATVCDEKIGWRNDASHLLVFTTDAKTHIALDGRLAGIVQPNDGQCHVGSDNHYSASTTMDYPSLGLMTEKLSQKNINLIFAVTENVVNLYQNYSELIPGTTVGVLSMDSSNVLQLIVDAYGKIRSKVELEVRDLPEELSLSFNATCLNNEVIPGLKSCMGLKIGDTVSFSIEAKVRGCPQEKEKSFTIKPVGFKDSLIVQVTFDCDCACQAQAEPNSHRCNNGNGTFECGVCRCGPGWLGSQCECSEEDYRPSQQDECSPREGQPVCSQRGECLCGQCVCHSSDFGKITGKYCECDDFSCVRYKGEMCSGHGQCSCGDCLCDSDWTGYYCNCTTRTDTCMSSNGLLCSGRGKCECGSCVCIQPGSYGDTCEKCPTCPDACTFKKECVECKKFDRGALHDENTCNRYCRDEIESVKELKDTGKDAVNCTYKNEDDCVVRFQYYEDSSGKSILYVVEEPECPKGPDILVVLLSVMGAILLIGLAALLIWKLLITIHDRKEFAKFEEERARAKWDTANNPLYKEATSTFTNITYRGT
Sequence of Integrin alpha-V/beta-3 (P06756 31-889 limits assumed): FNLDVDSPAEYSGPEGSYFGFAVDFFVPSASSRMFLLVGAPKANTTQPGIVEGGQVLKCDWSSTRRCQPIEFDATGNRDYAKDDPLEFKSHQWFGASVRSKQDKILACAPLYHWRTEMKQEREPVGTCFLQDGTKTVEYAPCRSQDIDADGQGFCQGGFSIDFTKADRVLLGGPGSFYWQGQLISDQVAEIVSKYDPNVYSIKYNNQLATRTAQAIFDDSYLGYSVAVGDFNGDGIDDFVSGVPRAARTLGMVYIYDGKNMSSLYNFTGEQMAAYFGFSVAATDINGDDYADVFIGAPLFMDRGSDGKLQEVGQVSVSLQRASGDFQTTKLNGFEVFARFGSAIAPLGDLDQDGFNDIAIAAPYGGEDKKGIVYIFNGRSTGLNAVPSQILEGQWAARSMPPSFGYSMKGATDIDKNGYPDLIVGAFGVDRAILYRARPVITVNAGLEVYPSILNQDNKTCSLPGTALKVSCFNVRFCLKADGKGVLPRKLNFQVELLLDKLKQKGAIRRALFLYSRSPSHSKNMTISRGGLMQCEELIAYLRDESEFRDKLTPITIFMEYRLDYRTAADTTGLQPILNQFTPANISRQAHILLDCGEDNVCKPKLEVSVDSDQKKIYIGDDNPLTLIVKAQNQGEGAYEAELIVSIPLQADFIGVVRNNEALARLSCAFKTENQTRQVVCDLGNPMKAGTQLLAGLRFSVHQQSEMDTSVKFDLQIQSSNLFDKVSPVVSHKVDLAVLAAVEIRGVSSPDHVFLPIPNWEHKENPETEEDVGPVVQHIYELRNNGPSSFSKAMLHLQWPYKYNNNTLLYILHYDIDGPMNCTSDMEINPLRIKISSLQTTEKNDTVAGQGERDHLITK
Sequence of Integrin alpha-V/beta-3 (P06756 891-1048 limits assumed): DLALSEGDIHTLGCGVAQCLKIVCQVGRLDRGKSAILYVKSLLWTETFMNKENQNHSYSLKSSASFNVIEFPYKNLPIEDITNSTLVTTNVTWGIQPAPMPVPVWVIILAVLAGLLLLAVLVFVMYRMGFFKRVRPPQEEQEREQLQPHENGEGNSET

Integrin alpha-V/beta-5 = Integrin alpha-V/beta-5 (Homo sapiens, UniProt P06756+P18084); assay: Binding affinity to integrin […] receptor by ELISA; format: protein-complex assay
Sequence of Integrin alpha-V/beta-5 (P06756 31-889 limits assumed): as the sequence (P06756 31-889 limits assumed) above
Sequence of Integrin alpha-V/beta-5 (P06756 891-1048 limits assumed): as the sequence (P06756 891-1048 limits assumed) above
Sequence of Integrin alpha-V/beta-5 (P18084 24-799 limits assumed): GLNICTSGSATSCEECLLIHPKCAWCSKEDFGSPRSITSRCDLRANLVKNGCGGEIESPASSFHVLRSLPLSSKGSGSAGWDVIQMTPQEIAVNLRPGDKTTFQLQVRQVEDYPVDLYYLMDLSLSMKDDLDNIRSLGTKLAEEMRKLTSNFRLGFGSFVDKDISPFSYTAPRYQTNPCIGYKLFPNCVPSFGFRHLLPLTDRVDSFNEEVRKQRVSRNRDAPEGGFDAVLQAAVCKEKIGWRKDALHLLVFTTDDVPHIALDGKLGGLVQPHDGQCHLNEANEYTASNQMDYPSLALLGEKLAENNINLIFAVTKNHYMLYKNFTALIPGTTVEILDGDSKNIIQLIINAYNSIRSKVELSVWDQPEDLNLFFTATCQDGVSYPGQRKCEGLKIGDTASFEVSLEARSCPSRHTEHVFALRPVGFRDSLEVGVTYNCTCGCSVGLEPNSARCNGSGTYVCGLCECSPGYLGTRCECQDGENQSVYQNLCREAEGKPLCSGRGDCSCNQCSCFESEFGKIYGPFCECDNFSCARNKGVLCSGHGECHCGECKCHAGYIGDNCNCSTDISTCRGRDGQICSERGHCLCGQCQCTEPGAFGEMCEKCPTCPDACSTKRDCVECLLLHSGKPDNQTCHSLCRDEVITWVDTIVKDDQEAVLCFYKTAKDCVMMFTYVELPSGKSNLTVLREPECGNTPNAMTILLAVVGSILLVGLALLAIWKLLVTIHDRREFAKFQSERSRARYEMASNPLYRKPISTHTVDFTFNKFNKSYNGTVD

[1] = target: Integrin alpha-IIb/beta-3 (Homo sapiens, UniProt P05106+P08514); assay: Binding affinity to integrin alpha2bbeta3 receptor by ELISA; format: protein-complex assay
[2] = Clearance in Wistar rat at 1 mg/kg, iv; format: ADME, organism-based; parameters: dose 1 mg/kg, route intravenous; details: in vivo
[3] = (§1) Terminal half life in Clearance in Wistar rat at 1 mg/kg, iv; format: ADME, organism-based; parameters: dose 1 mg/kg, route intravenous; details: Wistar, in vivo, read-out: beta t1/2
[4] = Oral bioavailability in Wistar rat at 10 mg/kg; format: ADME, organism-based; details: in vivo
Rattus norvegicus = assay: as §1; format: ADME, organism-based; parameters: dose 1 mg/kg, route intravenous; details: in vivo

Sequence of Integrin alpha-5/beta-1 (P05556 21-798 limits assumed): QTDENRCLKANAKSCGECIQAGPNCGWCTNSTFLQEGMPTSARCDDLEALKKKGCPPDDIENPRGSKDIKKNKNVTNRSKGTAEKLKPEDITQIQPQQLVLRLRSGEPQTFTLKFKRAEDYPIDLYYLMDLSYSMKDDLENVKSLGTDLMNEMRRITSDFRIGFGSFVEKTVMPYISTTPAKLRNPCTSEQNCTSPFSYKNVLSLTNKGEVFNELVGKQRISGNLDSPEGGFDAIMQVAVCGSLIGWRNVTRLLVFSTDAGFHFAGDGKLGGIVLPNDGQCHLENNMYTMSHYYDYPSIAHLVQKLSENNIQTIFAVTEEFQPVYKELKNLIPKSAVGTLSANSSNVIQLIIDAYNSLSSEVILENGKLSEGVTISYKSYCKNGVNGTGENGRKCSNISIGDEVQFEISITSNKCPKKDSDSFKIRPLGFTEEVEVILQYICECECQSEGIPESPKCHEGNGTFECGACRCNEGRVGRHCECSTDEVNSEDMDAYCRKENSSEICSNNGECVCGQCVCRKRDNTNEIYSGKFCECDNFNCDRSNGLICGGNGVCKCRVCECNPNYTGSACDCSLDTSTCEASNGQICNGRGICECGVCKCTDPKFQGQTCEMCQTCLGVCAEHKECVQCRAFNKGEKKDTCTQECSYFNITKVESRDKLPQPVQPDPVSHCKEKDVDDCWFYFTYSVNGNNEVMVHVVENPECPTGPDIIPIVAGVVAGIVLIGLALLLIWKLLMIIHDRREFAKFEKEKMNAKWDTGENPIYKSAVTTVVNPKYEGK
Sequence of Integrin alpha-5/beta-1 (P08648 42-894 limits assumed): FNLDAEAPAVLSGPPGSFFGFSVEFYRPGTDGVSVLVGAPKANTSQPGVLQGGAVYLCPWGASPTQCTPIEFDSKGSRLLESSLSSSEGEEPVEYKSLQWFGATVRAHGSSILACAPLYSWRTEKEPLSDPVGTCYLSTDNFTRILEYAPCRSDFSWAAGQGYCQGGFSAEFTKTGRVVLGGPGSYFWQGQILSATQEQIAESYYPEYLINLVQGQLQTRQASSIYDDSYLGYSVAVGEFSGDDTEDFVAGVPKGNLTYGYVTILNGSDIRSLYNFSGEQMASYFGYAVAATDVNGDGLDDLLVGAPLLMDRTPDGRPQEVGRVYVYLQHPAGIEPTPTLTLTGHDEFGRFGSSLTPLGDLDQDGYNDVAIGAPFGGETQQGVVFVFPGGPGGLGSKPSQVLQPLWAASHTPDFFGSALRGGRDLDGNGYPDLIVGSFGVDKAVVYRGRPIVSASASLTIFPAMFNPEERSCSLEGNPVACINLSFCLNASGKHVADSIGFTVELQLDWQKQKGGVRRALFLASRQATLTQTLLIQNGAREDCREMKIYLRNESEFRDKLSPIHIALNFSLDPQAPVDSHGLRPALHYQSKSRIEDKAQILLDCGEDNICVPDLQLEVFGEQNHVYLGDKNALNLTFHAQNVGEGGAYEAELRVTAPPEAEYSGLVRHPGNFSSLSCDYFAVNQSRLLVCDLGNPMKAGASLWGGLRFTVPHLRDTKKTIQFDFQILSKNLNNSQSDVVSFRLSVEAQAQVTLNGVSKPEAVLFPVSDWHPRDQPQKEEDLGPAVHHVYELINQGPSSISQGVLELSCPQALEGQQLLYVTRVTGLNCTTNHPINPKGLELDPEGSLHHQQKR
Sequence of Integrin alpha-5/beta-1 (P08648 895-1049 limits assumed): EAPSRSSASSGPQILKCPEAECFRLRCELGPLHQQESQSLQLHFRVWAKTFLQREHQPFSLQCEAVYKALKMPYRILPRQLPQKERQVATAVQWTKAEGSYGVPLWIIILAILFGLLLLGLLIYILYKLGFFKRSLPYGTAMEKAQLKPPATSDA

SMILES | pIC50 (Integrin alpha-5/beta-1) | pIC50 (Integrin alpha-V/beta-3) | pIC50 (Integrin alpha-V/beta-5) | pIC50 [1] | clearance [2] [mL/min/kg] | half-life [3] [h] | bioavailability [4] [%] | beta t1/2 (Rattus norvegicus) [h]
Cc1ccnc(NCc2cnc(-c3ccc(C[C@H](NC(=O)c4c(C)cc(C)cc4C)C(=O)O)cc3)s2)c1 | 7.89 | 6.33 | 6.30 | 3.82 | – | – | – | –
Cc1ccnc(NCc2csc(-c3ccc(C[C@H](NC(=O)c4c(C)cc(C)cc4C)C(=O)O)cc3)c2)c1 | 7.34 | 5.76 | 5.45 | 4.01 | – | – | – | –
Cc1ccnc(NCc2sccc2-c2ccc(C[C@H](NC(=O)c3c(C)cc(C)cc3C)C(=O)O)cc2)c1 | 6.05 | 4.80 | 4.77 | 4.11 | – | – | – | –
Cc1ccnc(NCc2coc(-c3ccc(C[C@H](NC(=O)c4c(C)cc(C)cc4C)C(=O)O)cc3)c2)c1 | 7.10 | 5.62 | 5.61 | 4.28 | 17 | 1.47 | 26 | –
Cc1ccnc(NCc2cc(-c3ccc(C[C@H](NC(=O)c4c(C)cc(C)cc4C)C(=O)O)cc3)on2)c1 | 8.21 | 6.58 | 6.59 | 3.93 | 9 | 2.3 | 11 | –
Cc1cc(C)c(C(=O)N[C@@H](Cc2ccc(OCCCNc3ccccn3)cc2)C(=O)O)c(C)c1 | 8.60 | 6.15 | – | – | – | – | – | –
Cc1ccnc(NCc2cccc(-c3ccc(CC(NC(=O)c4c(C)cc(C)cc4C)C(=O)O)cc3)c2)c1 (racemic) | 7.06 | 6.05 | < 4.70 | 3.74 | – | – | – | –
Cc1ccnc(NCc2ccc(-c3ccc(CC(NC(=O)c4c(C)cc(C)cc4C)C(=O)O)cc3)cc2)c1 (racemic) | 7.19 | 5.53 | < 7.70 | 3.78 | – | – | – | –

Now those with a higher pIC50 (Integrin alpha-5/beta-1), led by results:

pIC50 (Integrin alpha-5/beta-1) | pIC50 (Integrin alpha-V/beta-3) | pIC50 (Integrin alpha-V/beta-5) | pIC50 [1] | clearance [2] [mL/min/kg] | half-life [3] [h] | bioavailability [4] [%] | beta t1/2 (Rattus norvegicus) [h] | SMILES
8.64 | 7.08 | 4.96 | 4.64 | 70 | – | 16 | 1.1 | Cc1ccnc(NCC2CCN(c3ccc(CC(NC(=O)c4c(C)cc(C)cc4C)C(=O)O)cc3)CC2)c1 (racemic)
8.80 | 6.50 | 5.87 | – | – | – | – | – | Cc1ccnc(NCC2CC(=O)N(c3ccc(C[C@H](NC(=O)c4c(C)cc(C)cc4C)C(=O)O)cc3)C2)c1 (some centres undefined)
8.80 | 4.80 | 4.04 | < 4.30 | – | – | – | – | Cc1cc(C)c(C(=O)N[C@@H](CNC(=O)CO[C@H]2C[C@H](CNc3ccccn3)N(C(=O)CC(C)(C)C)C2)C(=O)O)c(C)c1
8.82 | 7.00 | 6.46 | 4.05 | – | – | – | – | Cc1ccnc(NCc2cn(-c3ccc(C[C@H](NC(=O)c4c(C)cc(C)cc4C)C(=O)O)cc3)nn2)c1
